Laboratory results taken from US20050143366A1, “Compounds for diagnosis, treatment and prevention of bone injury and metabolic disorders” (priority 2003, published 2005).

Key:
[1] = Binding to microcrystalline hydroxyapatite from dilute aqueous solution; settings: for % Adsorbed: 10^-5 M in 99:1 H2O:DMSO, 0.5% (w/v) slurried HA in Tris, mixed about 4 minutes, UV of supernatant; for Binding Index: Tetracycline positive control = 100
Source text: The ability of the compounds of the present invention to act as bone targeted pharmaceuticals is estimated initially by determination of the ability of the compounds to be bound to microcrystalline hydroxyapatite [Ca10(PO4)6.OH2] (HA) from a dilute aqueous solution. Solutions of test compounds are constructed in about 99: 1, v/v, H2O:dimethylsulfoxide (DMSO) at 10^−5M. These solutions are taken for determination of electronic photometric absorption spectra scanning from λ=500-190 nm. Absorption maxima (λmax) and extinction coefficients (ε) are determined using the Beer-Lambert law. […] These solutions and slurries are mixed for about 4 minutes, then centrifuged for about 3 minutes at 10,000×g. Supernatants are taken for UV absorption spectrometry at previously determined λmax. Concentrations of test compound are determined and the extent of binding is calculated. Tetracycline is included as a positive control compound.

[2] = test system: bone strength of femora from OVX rats; assay: Blunt indentation force to failure test of the distal femoral metaphysis; type: in vivo; settings: FIG. 1
Description: FIG. 1 is a bar graph showing the distal femur strength of animals including those treated with an exemplary compound of the present invention.
Bone density is not necessarily the equivalent to bone strength, so an additional test (blunt indentation force of the distal metaphysis) is performed as well. With reference to FIG. 1, as a measure of bone mechanical competence, a blunt indentation force to failure test is performed on femora from about 6-week-old OVX rats. Sham operated animals are simultaneously tested as a control.

[3] = test system: bone loss associated with OVX; assay: Whole femoral density in ovariectomized rats, ED50 for preventing bone loss; type: in vivo, Sprague-Dawley female rats; settings: dosing 3 times a week for about 6 weeks, dose preventing about 50% of the bone loss, by interpolation; for ED50: Rattus norvegicus, 1008 h, read-out: ED50 (nmol/kg) for preservation of Femoral Mass
Description: In vivo experiments—Bilaterally ovariectomized and sham operated Sprague-Dawley female rats (150-170 g) from Harlan Laboratories (Indianapolis, Ind.) are housed on about a 12 hour dark/light cycle at 22° C. with ad libitum access to tap water and food (Purina Laboratory Rodent Diet 5001: 0.95% calcium, 0.67% total phosphorous, and 0.40% non-phytate phosphorous). The rats are randomly assigned into groups of about 6 to 10 animals. Compound administration begins about 4 days after surgery. […] All compounds are dissolved in 5% DMSO in corn oil. After about 6 weeks of dosing, animals are euthanized by carbon dioxide asphyxiation. Blood is collected by cardiac puncture, and uteri and both left and right femurs are removed. Fresh weights of uteri are obtained. All animal procedures and care are approved by the internal animal care and use committee to ensure compliance with NIH guidelines. Determination of whole femoral density.—Following removal, femurs are rubbed clean of soft tissue using gauze, and femur fresh weights are measured. Femurs are then submerged in distilled water under a vacuum for about 1 hour to completely hydrate the femurs. Densities are determined by Archimedes' Principle using the following formula: density=[mass of hydrated femur/(mass of hydrated femur-mass of hydrated femur submerged in water)]*density of water at ambient temperature. The dose that is effective in preventing about 50% of the bone loss associated with OVX (ED50) is determined by interpolation.

Compound	% Adsorbed [1] [%]	Binding Index [1]	bone strength (blunt indentation force to failure, distal femur) [2]	ED50 [3] [nmol/kg]	effect on bone strength (blunt indentation force to failure) ([2]; at a normal dose) [%]	ED50 (nmol/kg) for preservation of Femoral Mass [3] [nmol/kg]
NC(=O)c1c(O)ccc(N)c1O [3-amino-2,6-dihydroxybenzamide, reference compound]	25.4	49				
C[C@]12CC[C@@H]3c4ccc(O)cc4CC[C@H]3[C@@H]1CC[C@@H]2O [17-β-estradiol, reference compound]	−4.0	−8	completely protect against osteopenia	10		
CC12CCC3c4ccc(O)cc4CCC3C1CCC2OC(=O)CCC(=O)Nc1ccc(O)c(C(N)=O)c1O (centres unmarked) [BTE2-A1]	54	105		8		
COc1ccc(NC(=O)CCC(=O)OC2CCC3C4CCc5cc(O)ccc5C4CCC23C)c(O)c1C(N)=O (centres unmarked) [BTE2-A2]	91.7	178		19		
COc1ccc(NC(=O)CCCCC(=O)OC2CCC3C4CCc5cc(O)ccc5C4CCC23C)c(O)c1C(N)=O (centres unmarked) [BTE2-B2]	99.1	192		9		
Raloxifene [reference compound]					~30	210
